We go through two molecules from patent US20240082194A1, “PREVENTIVE OR THERAPEUTIC AGENT FOR INFLAMMATORY DISORDERS AND/OR PAIN DISORDERS” (Kyowa Pharma Chemical Co., Ltd., priority 2021, published 2024).

Structures are written as SMILES. Several values for one entry are separate records, joined by “and”; a condition that tells them apart may be missing. Identical values can stand only once.

The subject of the test is adjuvant arthritis model rats. The test can be described thus: Rat adjuvant arthritis model: left hind limb (non-sensitized limb) volume. Type of test: in vivo, rat (male LEW rats). Particulars: for Left hind limb volume, Mean: group mean n=5; for Left hind limb volume: individual animals. The protocol:
Required amounts of GSSSG and indomethacin were weighed with an electronic balance, each ground well with a mortar, added to a solvent (0.5% methyl cellulose (MC) suspension), and suspended. The administration solution of GSSSG alone was prepared to have a concentration of 21.2 mg/mL (20 mg/mL on an anhydrous basis), and the administration solution of indomethacin alone was prepared to have a concentration of 0.06 mg/mL or 0.6 mg/mL. A combined administration solution was prepared by mixing a suspension prepared with GSSSG at 42.4 mg/mL (40 mg/mL on an anhydrous basis) with 0.12 mg/mL and 1.2 mg/mL indomethacin suspensions in equal amounts. The administration solution was prepared for 2 weeks at a time and stored under refrigeration and light shielding conditions until administration.
An appropriate amount of killed Mycobacterium tuberculosis (M. Tuberculosis H37Ra; BD) was ground in a mortar, and liquid paraffin was added thereto to prepare an adjuvant to 5 mg/mL. As experimental animals, 6-week-old male LEW rats were used. General condition observation and weight measurement were carried out upon arrival, and the presence or absence of abnormalities was confirmed.
The acclimation period was set to 7 days, and the general condition was observed once a day. On the last day of the acclimation period, left hind limb volume and body weight were measured to confirm that there were no abnormalities in body weight and general condition, and the animals were then used for a test.
On the last day of the acclimation period, the rats were sensitized with 50 μL of the prepared adjuvant under isoflurane inhalation anesthesia under the skin of the right hind limb plantar. In grouping, the rats were assigned to 6 groups (n=5) to ensure equal left hind limb volume and body weight.
The administration solution of indomethacin alone, the administration solution of GSSSG alone, and the combined administration solution were forcibly orally administered at a volume of 5 mL/kg for 14 days from the day of grouping. The dose was calculated based on the most recent body weight. The volume of the left hind limb (non-sensitized limb) was measured using a rat hind limb plantar edema volume measurement device (TK-101P; Natsume Seisakusho Co., Ltd.) on the last day of the acclimation period, the day of grouping, and twice a week after the day of grouping. The measurement was performed 5 times per rat per day, and an average value of 3 times excluding the highest and lowest values was taken as the volume.

Setting [1] is: GSSSG 100 mg/kg/day oral, day 0 (before sensitization).
The mark [2] stands for this setting: GSSSG 100 mg/kg/day oral, day 9 (day of grouping, start of dosing).
Where [3] appears, read: GSSSG 100 mg/kg/day oral, day 13.
[4] abbreviates: GSSSG 100 mg/kg/day oral, day 16.
Where [5] appears, read: GSSSG 100 mg/kg/day oral, day 20.
The mark [6] stands for this setting: GSSSG 100 mg/kg/day oral, day 23.
Where [7] appears, read: Indomethacin 0.3 mg/kg/day oral, day 0 (before sensitization).
The mark [8] stands for this setting: Indomethacin 0.3 mg/kg/day oral, day 9 (day of grouping, start of dosing).
The mark [9] stands for this setting: Indomethacin 0.3 mg/kg/day oral, day 13.
Where [10] appears, read: Indomethacin 0.3 mg/kg/day oral, day 16.
[11] abbreviates: Indomethacin 0.3 mg/kg/day oral, day 20.
Setting [12] is: Indomethacin 0.3 mg/kg/day oral, day 23.
Where [13] appears, read: Indomethacin 3 mg/kg/day oral, day 0 (before sensitization).
Where [14] appears, read: Indomethacin 3 mg/kg/day oral, day 9 (day of grouping, start of dosing).
Setting [15] is: Indomethacin 3 mg/kg/day oral, day 13.
Setting [16] is: Indomethacin 3 mg/kg/day oral, day 16.
The mark [17] stands for this setting: Indomethacin 3 mg/kg/day oral, day 20.
Setting [18] is: Indomethacin 3 mg/kg/day oral, day 23.

In the case of `N[C@@H](CCC(=O)N[C@@H](CSSSC[C@H](NC(=O)CC[C@H](N)C(=O)O)C(=O)NCC(=O)O)C(=O)NCC(=O)O)C(=O)O` [GSSSG, glutathione trisulfide], the “Left hind limb volume, Mean” value reads like this: under setting [1], 1.31 mL; under setting [2], 1.49 mL; under setting [3], 1.99 mL; under setting [4], 2.26 mL; under setting [5], 2.39 mL; under setting [6], 2.54 mL. Further, the “Left hind limb volume” value runs as follows: under setting [1], 1.21 mL and 1.39 mL (2×) and 1.29 mL (2×); under setting [2], 1.29 mL and 1.52 mL and 1.58 mL (2×) and 1.51 mL; under setting [3], 1.45 mL and 2.35 mL and 2.08 mL and 2.06 mL and 2.00 mL; under setting [4], 1.41 mL and 2.64 mL (2×) and 2.28 mL and 2.35 mL; under setting [5], 1.72 mL and 2.82 mL and 2.58 mL and 2.53 mL and 2.31 mL; under setting [6], 1.67 mL and 3.22 mL and 2.77 mL and 2.69 mL and 2.34 mL. Besides, the anti-inflammatory effect result (GSSSG alone administration group (100 mg/kg oral, 14 days)) was “no anti-inflammatory effect was observed”.
In the case of `COc1ccc2c(c1)c(CC(=O)O)c(C)n2C(=O)c1ccc(Cl)cc1` [Indomethacin, indomethacin], the “Left hind limb volume, Mean” value by setting is: under setting [7], 1.32 mL; under setting [8], 1.63 mL; under setting [9], 1.90 mL; under setting [10], 1.88 mL; under setting [11], 1.92 mL; under setting [12], 1.94 mL. Also, the “Left hind limb volume, Mean” value came out at 1.33 mL under setting [13]; 1.52 mL under setting [14]; 1.63 mL under setting [15]; 1.55 mL under setting [16]; 1.52 mL under setting [17]; 1.54 mL under setting [18]. Also, the “Left hind limb volume” value reads like this: under setting [7], 1.39 mL and 1.24 mL and 1.37 mL and 1.30 mL and 1.29 mL; under setting [8], 1.47 mL and 1.41 mL and 1.74 mL (2×) and 1.79 mL; under setting [9], 1.78 mL and 1.59 mL and 2.17 mL and 1.98 mL and 1.99 mL; under setting [10], 1.74 mL and 1.62 mL and 2.19 mL and 1.95 mL and 1.91 mL; under setting [11], 1.71 mL and 1.60 mL and 2.09 mL and 2.06 mL and 2.12 mL; under setting [12], 1.69 mL and 1.65 mL and 1.98 mL and 2.20 mL and 2.18 mL. The “Left hind limb volume” value runs as follows: under setting [13], 1.17 mL and 1.40 mL and 1.37 mL and 1.32 mL and 1.38 mL; under setting [14], 1.36 mL and 1.49 mL (2×) and 1.71 mL and 1.55 mL; under setting [15], 1.39 mL and 1.68 mL (2×) and 1.69 mL (2×); under setting [16], 1.36 mL and 1.60 mL (2×) and 1.58 mL and 1.62 mL; under setting [17], 1.32 mL and 1.60 mL and 1.61 mL and 1.51 mL and 1.59 mL; under setting [18], 1.33 mL and 1.56 mL and 1.61 mL and 1.58 mL and 1.62 mL.
